Measured values taken from article PMC8156151 (The European Respiratory Journal, 2021).
Read-outs that look alike come from different tables or passages of the source.

Legend:
Format in all cases: in vivo, human
TIMP-1 = assay: Plasma biomarker TIMP-1; conditions: for TIMP1 raw data, Mean (SD) / TIMP-1 least square means % baseline±SEM: IPF patients
Method: (§1) All patients, investigators, sites and study sponsor personnel were blinded to the study group assignments throughout the study. Patients underwent study-specific assessments on days 2, 3, 7, 14 and 15, and a post-study assessment was carried out 26–30 days after the last day of the study period. Assessments included vital signs (supine blood pressure, pulse, oxygen saturation, oral temperature and respiratory rate), spirometry, 12-lead ECG, physical examination, laboratory safety screen (haematology, biochemistry, urinalysis and urinary drugs of abuse screen) and blood sampling for PK measurements. All adverse events and concomitant medications were recorded from the time of the screening visit until the post-study follow-up visit. BAL was performed at day −1 (24 h before the first dose) and at day 14 (2 h after the last dose). The BAL procedure was performed as per international guidelines. Briefly, 240 mL of 0.9% saline at room temperature was instilled in 40 mL aliquots into the right middle lobe and aspirated by suction after each aliquot.
(§2) BAL cells were separated from fluid by centrifugation, and cells were collected, stained with antibodies (supplementary material) and then fixed before analysis using a LSR Fortessa flow cytometer (Becton Dickinson, Franklin Lakes, NJ, USA). Data were analysed using FlowJo software (Tree Star, Ashland, OR, USA). Macrophages were identified as having high side scatter properties and human leukocyte antigen-DR positivity. Gal-3 expression (mean fluorescence intensity) was determined from the macrophage gate (supplementary figures S1 and S2). […] Samples were analysed by magnetic Luminex assay (R&D Systems, Minneapolis, MN, USA) or ELISA.
(§3) For part 2 of the study, placebos were combined from the three dose-specific cohorts into a pooled control group (n=9). For alveolar macrophage Gal-3 expression and the plasma biomarkers, ANCOVA was performed for percentage of baseline ((day 14/day 1)×100). The ANCOVA model included effects for treatment group and baseline (day 1) value. […] An additional analysis including dose as a continuous covariate was also performed. The Pearson correlation coefficient (r) and associated p-value were calculated for percentage of baseline and day 14 values between plasma biomarkers and alveolar macrophage Gal-3 expression. […] The analysis is exploratory and there was no pre-planned adjustment for multiple testing; the study was not powered for this. Alveolar macrophage Gal-3 expression was considered the primary exploratory analysis with the pre-selected biomarkers secondary. A Bonferroni correction for multiple testing of the secondary end-points comparing the 10 mg group with placebo gives a critical value of 0.0063. Data are presented as the difference in least square means with 95% confidence interval and p-value unless otherwise stated. All analyses were performed using SAS version 9.4 (SAS Institute, Cary, NC, USA). […]

CCL2 (MCP-1) = assay: Plasma biomarker CCL2; conditions: for CCL2 (MCP-1) raw data, Mean (SD) / CCL2 (MCP-1) least square means % baseline±SEM: IPF patients
Method: as §1, §2, §3

[1] = Plasma pharmacokinetics, part 2 (IPF patients); conditions: for Cmin (plasma concentration at 24 h post-dose): BLQ: below limit of quantification (0.5 ng·mL^−1); for half-life / Cmax / concentration at 24 h / AUC(0-inf): human, plasma, inhaled; for concentration at 24 h: read-out: Cmin (plasma concentration at 24 h post-dose)
Method: (§4) Full plasma PK profiles were conducted on days 1 (first day of dosing) and 14 (last day of dosing). […] Standard noncompartmental methods were applied to derive PK parameters using Phoenix WinNonlin version 6.3 (Certara, Sheffield, UK). […] Drug compartment measurements in BAL alveolar macrophages and fluid were determined as described previously.

IL-1ra = assay: Plasma biomarker IL-1ra; conditions: for IL-1ra raw data, Mean (SD) / IL-1ra least square means % baseline±SEM: IPF patients
Method: as §1, §2, §3

[2] = TD139 concentration in BAL alveolar macrophages, ELF and plasma
Method: as §4

PDGF-AA = assay: Plasma biomarker PDGF-AA; conditions: for PDGF-AA raw data, Mean (SD) / PDGF-AA least square means % baseline±SEM: IPF patients
Method: as §1, §2, §3

BAL cells = assay: BAL cell classification and quantification (flow cytometry); conditions: any dose groups
Method: Dickinson, NJ, USA). Data were analysed using FlowJo software (Becton Dickinson, NJ, […]
identify cell populations based on surface marker expression. The antibodies used were Gal-3- […]
Biolegend except Gal-3-FITC which was from Cedarlane. Macrophages were identified as having high side scatter properties and HLA-DR positivity. Gal-3 expression (mean fluorescence intensity, MFI) was determined from the macrophage gate. Macrophage subsets […]
Plasma pharmacodynamic biomarkers
Secreted], CCL18 [pulmonary and activation-regulated chemokine], CCL26 [eotaxin], […]
A disease relevance score was
(supplementary table S2).
BAL cell classification and quantification
CD163 and CD206 expression (supplemental figure S2). […]
following treatment with TD139 in the high dose group.

Gal-1 = assay: Plasma biomarker Gal-1; conditions: for Galectin-1 raw data, Mean (SD) / Gal-1 least square means % baseline±SEM: IPF patients
Method: as §1, §2, §3

[3] = IPF patients, after 14 days of dosing
[4] = 3 mg, IPF patients, Day 1, 3 mg once daily, mean±SD
[5] = 3 mg, IPF patients, Day 14, 3 mg once daily, mean±SD
[6] = 10 mg, IPF patients, Day 1, 10 mg once daily, mean±SD
[7] = 10 mg, IPF patients, Day 14, 10 mg once daily, mean±SD

Cmin (plasma concentration at 24 h post-dose) ([1]; IPF patients, Day 1, 0.3 mg once daily): BLQ
Cmin (plasma concentration at 24 h post-dose) ([1]; IPF patients, Day 14, 0.3 mg once daily): BLQ
accumulation [1, 3]: ~50%
increase in AUC0−inf, 10 mg values [1, 3]: 8 fold
increase in Cmax, 10 mg values [1, 3]: 5 fold
expected accumulation ([1]; from T1/2 of ∼8 h and dosing interval of 24 h): ~14%
half-life ([1]; inhaled or intranasal, overall value, read-out: plasma half-life (T1/2) (converted)): 480 min
Cmax ([1]; 0.3 mg, IPF patients, Day 1, 0.3 mg once daily, mean±SD): 0.55 ± 0.02 ng/mL
Cmax ([1]; 0.3 mg, IPF patients, Day 14, 0.3 mg once daily, mean±SD): 0.86 ± 0.25 ng/mL
concentration at 24 h [1, 4]: 1.06 ± 0.43 ng/mL
concentration at 24 h [1, 5]: 1.48 ± 0.51 ng/mL
AUC(0-inf) [1, 4]: 69 ± 50 ng·h/mL
Cmax [1, 4]: 10.6 ± 11.1 ng/mL
half-life ([1]; 3 mg, IPF patients, Day 1, 3 mg once daily, mean±SD, read-out: T1/2 (converted)): 382 ± 125 min
AUC(0-inf) [1, 5]: 149 ± 47 ng·h/mL
Cmax [1, 5]: 16.5 ± 8.34 ng/mL
half-life ([1]; 3 mg, IPF patients, Day 14, 3 mg once daily, mean±SD, read-out: T1/2 (converted)): 415 ± 84 min
concentration at 24 h [1, 6]: 12.9 ± 7.88 ng/mL
concentration at 24 h [1, 7]: 14.7 ± 8.64 ng/mL
AUC(0-inf) [1, 6]: 921 ± 479 ng·h/mL
Cmax [1, 6]: 56.3 ± 19.3 ng/mL
half-life ([1]; 10 mg, IPF patients, Day 1, 10 mg once daily, mean±SD, read-out: T1/2 (converted)): 581 ± 102 min
AUC(0-inf) [1, 7]: 1150 ± 462 ng·h/mL
Cmax [1, 7]: 82.8 ± 11.8 ng/mL
half-life ([1]; 10 mg, IPF patients, Day 14, 10 mg once daily, mean±SD, read-out: T1/2 (converted)): 492 ± 136 min
correlation between concentrations of TD139 in ELF and AMs (r) ([2]; all active cohorts, day 14): 0.89 (95% CI 0.70–0.96)
correlation between concentrations of TD139 in plasma (total) and AMs (r) ([2]; all active cohorts, day 14): 0.89 (95% CI 0.65–0.96)
Kp at 2 h ([2]; human, inhaled, concentration of TD139 in BAL macrophages (lung) relative to systemic exposure (blood), IPF patients, 2 h post-dosing on day 14): > 567
Structure (SMILES): OC[C@H]1O[C@@H](S[C@@H]2O[C@H](CO)[C@H](O)[C@H](n3cc(-c4cccc(F)c4)nn3)[C@H]2O)[C@H](O)[C@@H](n2cc(-c3cccc(F)c3)nn2)[C@H]1O [TD139]
TIMP-1 difference in least square means % baseline (95% CI) (TIMP-1; 10 mg vs placebo, ANCOVA): 3.8 (−10.6–18.2) % baseline
TIMP1 raw data, Mean (SD) (TIMP-1; Day 14, 0.3 mg): 38084.3 (4735.81) pg/ml
TIMP1 raw data, Mean (SD) (TIMP-1; Day 14, 3 mg): 49880.6 (1032.27) pg/ml
TIMP1 raw data, Mean (SD) (TIMP-1; Day 14, 10 mg): 45458.7 (11908.04) pg/ml
TIMP-1 least square means % baseline±SEM (TIMP-1; day 14, 0.3 mg once daily): 88.6±5.8 % baseline
TIMP-1 least square means % baseline±SEM (TIMP-1; day 14, 3 mg once daily): 107.0±6.0 % baseline
TIMP-1 least square means % baseline±SEM (TIMP-1; day 14, 10 mg once daily): 106.0±5.5 % baseline
CCL2 (MCP-1) difference in least square means % baseline (95% CI) (CCL2 (MCP-1); 10 mg vs placebo, ANCOVA): −71.7 (−187.1–43.7) % baseline
CCL2 (MCP-1) raw data, Mean (SD) (CCL2 (MCP-1); Day 14, 0.3 mg): 133.8 (15.06) pg/ml
CCL2 (MCP-1) raw data, Mean (SD) (CCL2 (MCP-1); Day 14, 3 mg): 137.6 (63.21) pg/ml
CCL2 (MCP-1) raw data, Mean (SD) (CCL2 (MCP-1); Day 14, 10 mg): 270.3 (348.45) pg/ml
CCL2 (MCP-1) least square means % baseline±SEM (CCL2 (MCP-1); day 14, 0.3 mg once daily): 126.7±39.3 % baseline
CCL2 (MCP-1) least square means % baseline±SEM (CCL2 (MCP-1); day 14, 3 mg once daily): 93.7±38.7 % baseline
CCL2 (MCP-1) least square means % baseline±SEM (CCL2 (MCP-1); day 14, 10 mg once daily): 89.4±43.5 % baseline
IL-1ra difference in least square means % baseline (95% CI) (IL-1ra; 10 mg vs placebo, ANCOVA): 6.0 (−47.5–59.4) % baseline
IL-1ra raw data, Mean (SD) (IL-1ra; Day 14, 0.3 mg): 548.3 (279.69) pg/ml
IL-1ra raw data, Mean (SD) (IL-1ra; Day 14, 3 mg): 709.8 (338.05) pg/ml
IL-1ra raw data, Mean (SD) (IL-1ra; Day 14, 10 mg): 1992.9 (2627.15) pg/ml
IL-1ra least square means % baseline±SEM (IL-1ra; day 14, 0.3 mg once daily): 93.2±20.3 % baseline
IL-1ra least square means % baseline±SEM (IL-1ra; day 14, 3 mg once daily): 98.7±20.2 % baseline
IL-1ra least square means % baseline±SEM (IL-1ra; day 14, 10 mg once daily): 98.0±20.8 % baseline
PDGF-AA difference in least square means % baseline (95% CI) (PDGF-AA; 10 mg vs placebo, ANCOVA): −129.7 (−295.3–35.8) % baseline
PDGF-AA raw data, Mean (SD) (PDGF-AA; Day 14, 0.3 mg): 1299.7 (754.57) pg/ml
PDGF-AA raw data, Mean (SD) (PDGF-AA; Day 14, 3 mg): 4075.9 (5511.46) pg/ml
PDGF-AA raw data, Mean (SD) (PDGF-AA; Day 14, 10 mg): 2556.7 (987.79) pg/ml
PDGF-AA least square means % baseline±SEM (PDGF-AA; day 14, 0.3 mg once daily): 61.7±60.6 % baseline
PDGF-AA least square means % baseline±SEM (PDGF-AA; day 14, 3 mg once daily): 117.1±62.1 % baseline
PDGF-AA least square means % baseline±SEM (PDGF-AA; day 14, 10 mg once daily): 83.6±61.2 % baseline
abundance or frequencies of CD4+ or CD8+ T cells, Tregs, NK, NKT, B cells, neutrophils or monocytes in BAL (BAL cells): no change in the abundance or frequencies
Gal-1 difference in least square means % baseline (95% CI) (Gal-1; 10 mg vs placebo, ANCOVA): −16.6 (−60.0–26.7) % baseline
Galectin-1 raw data, Mean (SD) (Gal-1; Day 14, 0.3 mg): 41996.4 (7357.87) pg/ml
Galectin-1 raw data, Mean (SD) (Gal-1; Day 14, 3 mg): 60416.7 (17348.65) pg/ml
Galectin-1 raw data, Mean (SD) (Gal-1; Day 14, 10 mg): 48409.7 (21339.06) pg/ml
Gal-1 least square means % baseline±SEM (Gal-1; day 14, 0.3 mg once daily): 93.1±16.7 % baseline
Gal-1 least square means % baseline±SEM (Gal-1; day 14, 3 mg once daily): 120.2±16.6 % baseline
Gal-1 least square means % baseline±SEM (Gal-1; day 14, 10 mg once daily): 89.7±16.6 % baseline
